Laboratory results taken from PubChem BioAssay (NCI).
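Cells were grown in 96-well plates and exposed to each compound for 48 hours at five concentrations; endpoints were interpolated linearly between bracketing concentrations, or set to the highest concentration if not reached. TGI: total growth inhibition.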

Experiments:
Assay in all cases: growth of human tumour cells (NCI), 48 h
[1] = tested on: 786-0 renal
[2] = tested on: A498 renal
[3] = tested on: A549 NSCLC
[4] = tested on: ACHN renal
[5] = tested on: CAKI-1 renal
[6] = tested on: CCRF-CEM leukemia
[7] = tested on: COLO 205 colon
[8] = tested on: DLD-1 colon
[9] = tested on: DMS 114 small cell lung
[10] = tested on: DMS 273 small cell lung
[11] = tested on: EKVX NSCLC
[12] = tested on: HCC-2998 colon
[13] = tested on: HCT-116 colon
[14] = tested on: HCT-15 colon
[15] = tested on: HL-60(TB) leukemia
[16] = tested on: HOP-18 NSCLC
[17] = tested on: HOP-62 NSCLC
[18] = tested on: HOP-92 NSCLC
[19] = tested on: HT29 colon
[20] = tested on: IGROV1 ovarian
[21] = tested on: K-562 leukemia
[22] = tested on: KM12 colon
[23] = tested on: KM20L2 colon
[24] = tested on: LOX IMVI melanoma
[25] = tested on: LXFL 529 NSCLC
[26] = tested on: M14 melanoma
[27] = tested on: M19-MEL melanoma
[28] = tested on: MALME-3M melanoma
[29] = tested on: NCI-H23 lung
[30] = tested on: NCI-H460 lung
[31] = tested on: NCI-H522 lung
[32] = tested on: OVCAR-3 ovarian
[33] = tested on: OVCAR-5 ovarian
[34] = tested on: OVCAR-8 ovarian
[35] = tested on: RPMI-8226 leukemia
[36] = tested on: SF-268 CNS
[37] = tested on: SF-295 CNS
[38] = tested on: SF-539 CNS
[39] = tested on: SK-MEL-2 melanoma
[40] = tested on: SK-MEL-28 melanoma
[41] = tested on: SK-MEL-5 melanoma
[42] = tested on: SK-OV-3 ovarian
[43] = tested on: SN12C renal
[44] = tested on: SNB-19 CNS
[45] = tested on: SNB-75 CNS
[46] = tested on: SNB-78 CNS
[47] = tested on: SR leukemia
[48] = tested on: SW-620 colon
[49] = tested on: TK-10 renal
[50] = tested on: U251 CNS
[51] = tested on: UACC-257 melanoma
[52] = tested on: UACC-62 melanoma
[53] = tested on: UO-31 renal
[54] = tested on: MOLT-4 leukemia
[55] = tested on: NCI-H226 lung
[56] = tested on: OVCAR-4 ovarian
[57] = tested on: RXF 393 renal

Measured: TGI

CCOC(=O)C1=C(C)N2CCOC2(C)C(C(=O)OC)C1c1cccc(Cl)c1 (stereo not given)
> 100 µM: [1] | [2] | [3] | [4] | [5] | [6] | [7] | [8] | [9] | [10] | [11] | [12] | [13] | [14] | [15] | [16] | [17] | [18] | [19] | [20] | [21] | [22] | [23] | [24] | [25] | [26] | [27] | [28] | [29] | [30] | [31] | [32] | [33] | [34] | [35] | [36] | [37] | [38] | [39] | [40] | [41] | [42] | [43] | [44] | [45] | [46] | [47] | [48] | [49] | [50] | [51] | [52] | [53]

N/N=c1\c2ccccc2c2ccc3c4ccccc4/c(=N\N)c3c12
> 100 µM: [1] | [3] | [4] | [6] | [7] | [8] | [9] | [10] | [11] | [12] | [13] | [14] | [15] | [16] | [17] | [18] | [19] | [20] | [21] | [22] | [23] | [25] | [26] | [27] | [28] | [54] | [55] | [29] | [30] | [31] | [56] | [33] | [34] | [35] | [57] | [36] | [37] | [38] | [39] | [40] | [41] | [42] | [43] | [44] | [45] | [46] | [47] | [48] | [50] | [51] | [52] | [53]
